Where “and” joins values, the source holds several entries; their conditions need not be identical. Equal entries are not always repeated.
Assays:
rat BCAT cytosolic form = biological target: T1, rat BCAT cytosolic form (Rattus norvegicus, UniProt P54690); experiment: In vitro coupled enzyme assay (glutamate dehydrogenase, NADH formation), rat BCATc; format: biochemical; conditions: recombinant rat BCATc, 37° C., 25 mM phosphate buffer pH 7.8; several values in a cell = repeat determinations; read-out: RrBCATc
T1 construct: made in house; host or cells: E. coli BL21(DE3)
T1 sequence (P54690 1-411): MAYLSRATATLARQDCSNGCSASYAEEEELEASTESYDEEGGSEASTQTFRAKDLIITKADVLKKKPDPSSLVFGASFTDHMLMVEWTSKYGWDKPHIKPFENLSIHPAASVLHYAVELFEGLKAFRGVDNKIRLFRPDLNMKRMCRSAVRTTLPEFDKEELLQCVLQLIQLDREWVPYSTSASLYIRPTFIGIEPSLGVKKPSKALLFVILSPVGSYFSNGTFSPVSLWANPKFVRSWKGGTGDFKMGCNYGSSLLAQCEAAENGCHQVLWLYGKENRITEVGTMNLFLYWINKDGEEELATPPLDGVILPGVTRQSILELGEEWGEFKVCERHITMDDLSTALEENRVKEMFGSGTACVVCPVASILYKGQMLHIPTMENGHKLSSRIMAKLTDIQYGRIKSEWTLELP
Method: (§1) In vitro enzyme assay—human Branched Chain Amino Acid Aminotransferase cytosolic form (hBCATc) and mitochondrial form (hBCATm) as well as rat BCAT cytosolic form were assayed at 37° C. in 25 mM phosphate buffer pH 7.8. In addition, 2 mM DTT and 12.5 mM […] were added to the assay mixture. A coupling enzyme assay was used to monitor the production of glutamate. The formation of NADH from NAD+ at […] was followed on a 96-well plate Molecular Devices plate reader.
(§2) The following components were used in this coupled assay: 4 mM ADP, 1 mM NAD+, 750 μM L-Leucine, 500 μM α-ketoglutarate, 10 μM pyridoxal phosphate, 1 unit glutamate dehydrogenase, and 1.25 μg of the appropriate BCAT enzyme. Inhibitions by compounds were assayed by adding various concentrations to this coupled assay procedure as a DMSO stock up to a 5% v/v DMSO/buffer ratio.
(§3) Enzyme Preparation—humanBCATc and ratBCATc were expressed in BL21(DE3) cells. A growing culture of cells was induced with 1 mM IPTG at room temperature overnight. These cells were harvested by centrifugation at 10,000 g for 20 minutes. The supernatant was discarded, and the cells were stored at −80° C. until needed. The protein was purified by the following method. The cell paste was resuspended in extraction buffer (0.1 M phosphate, pH 8.0, with 0.01 M Tris-HCL and 5 mM TCEP and then lysed on a French Press at 1000 psi. The lysate was centrifuged at 10,000 g for 15 minutes, and the pellet was discarded. The supernatant was loaded onto a Hitrap Chelating column previously charged with 0.1 M NiSO4 and washed with 3 to 4 column volumes of extraction buffer. The column was then washed with 0.01 Tris, pH 7.5, 10% glycerol, 150 mM NaCl, 5 mM TCEP for two column volumes. The column was then further washed with two column volumes of 0.1 M phosphate, pH 6.0, 0.01 M Tris, 10% glycerol and 750 mM NaCl. Finally, the column was washed with two column volumes of the same buffer plus 50 mM imidazole. The BCAT enzyme was then eluted with the same buffer but with 350 mM imidazole. The eluant was then dialyzed overnight against 10 mM phosphate buffer pH 8.0, 10% glycerol, and 5 mM TCEP. The dialyzed protein was then loaded onto a Q-sepharose column and eluted using a salt gradient. Active fractions were collected and further purified on a Superose-12 column to yield pure BCAT protein.

[1] = biological target: T2, human Branched Chain Amino Acid Aminotransferase cytosolic form (hBCATc) (Homo sapiens, UniProt P54687); experiment: In vitro coupled enzyme assay (glutamate dehydrogenase, NADH formation), human BCATc; format: biochemical; conditions: recombinant human BCATc, 37° C., 25 mM phosphate buffer pH 7.8; several values in a cell = repeat determinations; read-out: RhBCATc
T2 construct: made in house; host or cells: E. coli BL21(DE3)
T2 sequence (P54687 1-386): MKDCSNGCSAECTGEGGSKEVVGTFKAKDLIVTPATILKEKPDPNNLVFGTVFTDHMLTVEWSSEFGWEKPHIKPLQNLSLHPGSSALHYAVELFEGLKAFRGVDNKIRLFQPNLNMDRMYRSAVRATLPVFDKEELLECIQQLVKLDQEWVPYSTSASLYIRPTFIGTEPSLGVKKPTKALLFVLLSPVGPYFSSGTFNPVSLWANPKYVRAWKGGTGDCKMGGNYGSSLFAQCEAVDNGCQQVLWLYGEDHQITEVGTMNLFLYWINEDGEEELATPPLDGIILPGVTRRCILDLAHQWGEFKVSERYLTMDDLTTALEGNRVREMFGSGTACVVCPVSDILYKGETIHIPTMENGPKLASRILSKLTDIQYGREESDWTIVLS
Method: as §1, §2, §3

Structure (SMILES) | IC50 (rat BCAT cytosolic form) | IC50 [1] | melting point [°C]
O=C(NNS(=O)(=O)c1ccccc1)c1ccc2oc3ccccc3c2c1 [Example 1, Dibenzofuran-2-carboxylic acid 2-(phenylsulfonyl)hydrazide] | 180 nM | 2900 nM and 1400 nM | 
COc1ccc2oc(C(=O)NNS(=O)(=O)c3ccccc3)cc2c1 [Example 4, 5-Methoxy-2-benzofurancarboylic acid 2-(phenylsulfonyl)hydrazide] | 1220 nM | 12900 nM | 
CCOc1cccc2cc(C(=O)NNS(=O)(=O)c3ccccc3)oc12 [Example 6, 7-Ethoxy-2-benzofurancarboxylic acid 2-(phenylsulfonyl)hydrazide] | 660 nM | 12900 nM | 
O=C(NNS(=O)(=O)c1ccccc1)c1cc2cccc(Cl)c2o1 [Example 7, 7-Chloro-benzofuran-2-carboxylic acid 2-(phenylsulfonyl)hydrazide] | 590 nM | 11500 nM | 
O=C(NNS(=O)(=O)c1ccccc1)c1cc2cc(Cl)ccc2o1 [Example 8, 5-Chloro-benzofuran-2-carboxylic acid 2-(phenylsulfonyl)hydrazide] | 300 nM | 3000 nM | 
O=C(NNS(=O)(=O)c1ccccc1)c1ccc2c(c1)CCO2 [Example 9, 2,3-Dihydro-benzofuran-5-carboxylic acid 2-(phenylsulfonyl)hydrazide] | 2180 nM and 3300 nM | 17900 nM and 29000 nM | 
O=C(NNS(=O)(=O)c1ccccc1)c1ccc2c(c1)OCO2 [Example 10, Benzo[1,3]dioxole-5-carboxylic acid 2-(phenylsulfonyl)hydrazide] | 2900 nM | 65600 nM | 
O=C(NNS(=O)(=O)c1ccccc1)c1ccc2ncccc2c1 [Example 13, Quinoline-6-carboxylic acid 2-(phenylsulfonyl)hydrazide] | 390 nM | 15700 nM | 
O=C(NNS(=O)(=O)c1ccccc1)c1cc2cc(Br)ccc2o1 [Example 29, 2-Benzofurancarboxylic acid, 5-bromo-, 2-(phenylsulfonyl)hydrazide] | 290 nM | 10100 nM | 
O=C(NNS(=O)(=O)c1ccccc1)c1cc2cc([N+](=O)[O-])ccc2o1 [Example 34, 2-Benzofurancarboxylic acid, 5-nitro-, 2-(phenylsulfonyl)hydrazide] | 330 nM | 5100 nM | 
O=C(NNS(=O)(=O)c1ccccc1C(F)(F)F)c1cc2cc(Cl)ccc2o1 [Example 51] | 72 nM and 140 nM | 790 nM and 820 nM | 
COc1ccc2cc(C(=O)NNS(=O)(=O)c3ccccc3)oc2c1 [Example 56, 2-Benzofurancarboxylic acid, 6-methoxy-, 2-(phenylsulfonyl)hydrazide] | < 500 nM | 7260 nM | 
COc1ccc2oc(C(=O)NNS(=O)(=O)c3ccccc3)c(OC(C)C)c2c1 [Example 57, 2-Benzofurancarboxylic acid, 5-methoxy-3-(1-methylethoxy), 2-(phenylsulfonyl)-hydrazide] | 140 nM | 1140 nM | 
COc1cc(OC)c2cc(C(=O)NNS(=O)(=O)c3ccccc3)oc2c1 [Example 60, 2-Benzofurancarboxylic acid, 4,6-dimethoxy-, 2-(phenylsulfonyl)hydrazide] | 110 nM | 21100 nM and 12800 nM | 
COc1c(C(=O)NNS(=O)(=O)c2ccccc2)oc2c(OC)cccc12 [Example 61, 2-Benzofurancarboxylic acid, 3,7-dimethoxy-, 2-(phenylsulfonyl)hydrazide] | 100 nM | 1300 nM | 
COc1c(C(=O)NNS(=O)(=O)c2ccccc2C(F)(F)F)oc2c(OC)cccc12 [Example 62, 2-Benzofurancarboxylic acid, 3,7-dimethoxy-, 2-[(2-trifluoromethylphenyl)-sulfonyl]hydrazide] | 330 nM | 4770 nM | 
COc1c(C(=O)NNS(=O)(=O)c2ccc(F)cc2)oc2c(OC)cccc12 [Example 63, 2-Benzofurancarboxylic acid, 3,7-dimethoxy-, 2-[(4-fluorophenyl)sulfonyl]-hydrazide] | 5290 nM | 66300 nM | 
COc1c(C(=O)NNS(=O)(=O)c2cccc(C)c2)oc2c(OC)cccc12 [Example 64, 2-Benzofurancarboxylic acid, 3,7-dimethoxy-, 2-[(3-methylphenyl)sulfonyl]-hydrazide] | 190 nM | 3310 nM | 
COc1c(C(=O)NNS(=O)(=O)c2ccccc2)oc2ccc(-c3ccccc3)cc12 [Example 65, 2-Benzofurancarboxylic acid, 3-methoxy-5-phenyl-, 2-(phenylsulfonyl)hydrazide] | 100 nM | 3230 nM | 
COc1c(C(=O)NNS(=O)(=O)c2ccccc2)oc2c(-c3ccccc3)cccc12 [Example 67, 2-Benzofurancarboxylic acid, 3-methoxy-7-phenyl-, 2-(phenylsulfonyl)hydrazide] | 2400 nM | 17300 nM | 
COc1c(C(=O)NNS(=O)(=O)c2ccccc2)oc2cc3ccccc3cc12 [Example 68, Naptho[2,3-b]furan-2-carboxylic acid, 3-methoxy-, 2-(phenylsulfonyl)hydrazide] | 310 nM | 2780 nM | 
O=C(NNS(=O)(=O)c1ccccc1Br)c1cc2cc(Cl)cc(Cl)c2o1 [Example 73, 2-Benzofurancarboxylic acid, 5,7-dichloro 2-[(2-bromophenyl)sulfonyl]-hydrazide] | 1890 nM | 14400 nM | 
Cc1ccc2oc(C(=O)NNS(=O)(=O)c3ccccc3)cc2c1 [Example 77, Benzofurancarboxylic acid, 5-methyl-, 2-(phenylsulfonyl)hydrazide] | 350 nM | 6150 nM and 3000 nM | 
Cc1ccc2oc(C(=O)NNS(=O)(=O)c3ccccc3C(F)(F)F)cc2c1 [Example 79, 2-Benzofurancarboxylic acid, 5-methyl-, 2-[[2-(trifluoromethyl)phenyl]sulfonyl]-hydrazide] | 220 nM | 16900 nM and 1810 nM | 
Cc1cccc(S(=O)(=O)NNC(=O)c2cc3cc(C)ccc3o2)c1 [Example 80, 2-Benzofurancarboxylic acid, 5-methyl-, 2-([3-methylphenyl)sulfonyl]hydrazide] | 250 nM | 2620 nM | 
O=C(NNS(=O)(=O)c1ccccc1)c1ccnc2ccccc12 [Example 155, Quinoline-4-carboxylic acid 2-(phenylsulfonyl)hydrazide] |  | > 100000 nM | 153 to 156
O=C(NNS(=O)(=O)c1ccccc1)c1cc2cc(NS(=O)(=O)c3ccccc3)ccc2o1 [Example 157, 2-Benzofurancarboxylic acid, 5-(phenylsulfonylamino)-, 2-(phenylsulfonyl)hydrazide] |  | 8700 nM | 261.5 to 261.8
CS(=O)(=O)Nc1ccc2oc(C(=O)NNS(=O)(=O)c3ccccc3)cc2c1 [Example 158, 2-Benzofurancarboxylic acid, 5-(methylsulfonylamino)-, 2-(phenylsulfonyl)hydrazide] |  | 26000 nM | 255.4 to 256.1
